Results from patent US20080103198A1, “METHODS FOR TREATMENT OF COCHLEAR AND VESTIBULAR DISORDERS” (priority 2006, published 2008).

Assays:
[1] = tested on: Li-pilo induced SE; assay: Lithium-pilocarpine model of temporal lobe epilepsy (Example 1): mortality and spontaneous recurrent seizures; type: in vivo, rat
Excerpt: The model induced in rats by pilocarpine associated with lithium (Li-Pilo) reproduces most of the clinical and neurophysiological features of human temporal lobe epilepsy (Turski et al., 1989, Synapse 3:154-171; Cavalheiro, 1995, Ital J Neurol Sci 16:33-37). In adult rats, the systemic administration of pilocarpine leads to status epilepticus (SE). The lethality rate reaches 30-50% during the first days. In the surviving animals, neuronal damage predominates within the hippocampal formation, the piriform and entorhinal cortices, thalamus, amygdaloid complex, neocortex and substantia nigra.
Male Wistar rats weighing 225-250 g, provided by Janvier Breeding Center (Le Genest-St-lste, France) were housed under controlled standard conditions (light/dark cycle, 7.00 a.m.-7.00 p.m. lights on), with food and water available ad libitum. All animal experimentation was performed in accordance with the rules of the European Communities Council Directive of Nov. 24, 1986 (86/609/EEC), and the French Department of Agriculture (License No 67-97). For electrode implantation, rats were anesthetized by an i.p. injection of 2.5 mg/kg diazepam (DZP, Valium, Roche, France) and […] ketamine chlorhydrate (Imalgene 1000, Rhone Merrieux, France). Four single-contact recording electrodes were placed on the skull, over the parietal cortex, two on each side.
All rats received lithium chloride (3 meq/kg, i.p., Sigma, St Louis, Mo., U.S.A.); about 20 h later, animals were placed into plexiglas boxes, in order to record baseline cortical EEG. Methylscopolamine bromide (1 mg/kg, s.c., Sigma) was administered to limit the peripheral effects of the convulsant. SE was induced by injecting pilocarpine hydrochloride (25 mg/kg, s.c., Sigma) 30 min after methyl-scopolamine. The bilateral EEG cortical activity was recorded during the whole duration of SE and behavioral changes were noted.
The effects of increasing doses of the test compound were studied on 3 groups of rats. The animals of the first group received 10 mg/kg of the test compound, i.p., 1 h after the onset of SE (pilo-test10) while the animals of groups 2 and 3 received 30 and 60 mg/kg of the test compound (pilo-test30 and pilo-test60), respectively.
Another group was injected with 2 mg/kg diazepam (DZP, i.m.) at 1 h after the onset of SE which are our standard treatment to improve animals survival after SE (pilo-DZP). The control group received saline instead of pilocarpine and the test compound (saline-saline). The pilo-test compound rats surviving SE were then injected about 10 h after the first test compound injection with a second i.p. injection of the same dose of the test compound and were maintained under a twice daily treatment with the test compound for 6 additional days. Pilo-DZP received a second injection of 1 mg/kg DZP on the day of SE at about 10 h after the first one. Thereafter, Pilo-DZP and saline-saline rats received twice daily an equivalent volume of saline.
The effects of the test compound on the EEG and on the latency to occurrence of SRS were investigated by daily video recording of the animals for 10 h per day and the recording of the electrographic activity twice a week for 8 h.
For the comparison of the characteristics of SE in pilo-saline and pilo-test compound animals, a non-paired Student's t-test was used. The comparison between the number of rats seizing in both groups was performed by means of a Chi square test. For neuronal damage, statistical analysis between groups was performed using ANOVA followed by a Fisher's test for multiple comparisons using the Statview software (Fisher R A, 1946a, Statistical Methods for Research Workers (10th edition) Oliver & Boyd, Edinburgh; Fisher R A, 1946b, The Design of Experiments (4th edition) Oliver & Boyd, Edinburgh) Behavioral and EEG characteristics of lithium-pitocarpine status epilepticus

[2] = tested on: Li-Pilo SE; assay: Lithium-pilocarpine model (Example 2): quantification of cell densities; type: in vivo, rat; details: for number of neuronal cell bodies, Dorsal entorhinal, layer II / number of neuronal cell bodies, Dorsal entorhinal, layer III / number of neuronal cell bodies, Piriform, layer II, dorsal / number of neuronal cell bodies, Piriform, layer II, ventral / number of neuronal cell bodies, Piriform, layer III / number of neuronal cell bodies, Ventral entorhinal, layer II / number of neuronal cell bodies, Ventral entorhinal, layers III-IV / number of neuronal cell bodies, hippocampus CA1 area / number of neuronal cell bodies, hippocampus CA3 area / number of neuronal cell bodies, hippocampus Hilus / damage, hilus of dentate gyrus / cell loss, CA1 pyramidal layer: 14 days after SE; for number of neuronal cell bodies, Dorsal entorhinal, layer II / number of neuronal cell bodies, Dorsal entorhinal, layer III / number of neuronal cell bodies, Piriform, layer II, dorsal / number of neuronal cell bodies, Piriform, layer II, ventral / number of neuronal cell bodies, Piriform, layer III / number of neuronal cell bodies, Ventral entorhinal, layer II / number of neuronal cell bodies, Ventral entorhinal, layers III-IV / number of neuronal cell bodies, hippocampus CA1 area / number of neuronal cell bodies, hippocampus CA3 area / number of neuronal cell bodies, hippocampus Hilus: mean ± S.E.M.
Method: Quantification of cell densities was performed at two times after SE: a first group was studied 14 days after SE and was composed by 7 DZP, 8 RWJ30, 11 RWJ60, 10 RWJ90, 8 RWJ120 and 8 control rats not subjected to SE. A second group used for the study of the latency to SRS was sacrificed either 8 weeks after the first SRS or at 5 months when no SRS could be seen in that delay and was composed by 7 DZP, 2 RWJ30, 3 RWJ60, 3 RWJ90, 4 RWJ120 rats. Animals were deeply anesthetized with 1.8 g/kg pentobarbital (Dolethal®, Vétoquinol, Lure, France). Brains were then removed and frozen. Serial 20 μm slices were cut in a cryostat, air-dried during several days before thionine staining. Quantification of cell densities was performed with a 10×10 boxes 1 cm^2 microscopic grid on coronal sections according to the stereotaxic coordinates of the rat brain atlas (Paxinos and Watson, 1986, The Rat Brain in Stereotaxic coordinates, 2nd ed. Academic Press, San Diego). The grid of counting was placed on a well-defined area of the cerebral structure of interest and counting was carried out with a microscopic enlargement of 200- or 400-fold defined for each single cerebral structure. Cell counts were performed twice on each side of three adjacent sections for each region by a single observer unaware of the animal's treatment. The number of cells obtained in the 12 counted fields in each cerebral structure was averaged. This procedure was used to minimize the potential errors that could result from double counting leading to overestimation of cell numbers. […] Counts involved only neurons with cell bodies larger than 10 μm. Cells with small cell bodies were considered as glial cells and were not counted.
For neuronal damage, statistical analysis between groups was performed by means of a one-way analysis of variance followed by a post-hoc Scheffe's test using the Statview software.

SMILES: NC(=O)OC[C@@H](O)c1ccccc1Cl [test compound]
- latency to SRS ([1]; 10 mg/kg i.p., 7-day treatment, n=7): 15.4 ± 5.1 days
- frequency of stage III SRS ([1]; 10 mg/kg, weeks 3 and 4): significantly increased over pilo-DZP values
- latency to SRS ([1]; 30 mg/kg i.p., 7-day treatment, n=10): 18.9 ± 9.0 days
- frequency of stage IV-V SRS ([1]; 60 mg/kg group with early SRS onset, weeks 2-4): 0.6-0.9 seizure per week
- delay without becoming epileptic post-SE ([1]; 60 mg/kg, one rat): > 9 months
- mean delay to epilepsy relative to the other groups of animals ([1]; 60 mg/kg, subgroup of animals): about 9 fold
- latency to SRS ([1]; 60 mg/kg, subgroup with latency similar to other groups, n=7): 17.6 ± 8.7 days
- latency to SRS (mean) ([1]; 60 mg/kg, subgroup with much longer delay, n=4): 149.8 ± 36.0 days
- rats with delayed occurrence of spontaneous seizures ([1]; 60 mg/kg, 4 out of 11): 36%
- frequency of stage IV-V SRS ([1]; 10, 30 and 60 mg/kg (early SRS onset) groups, first week): 2.3-6.1 SRS per week
- mortality during the first 48 h after SE ([1]; test compound 10 mg/kg i.p. 1 h after SE onset): 26%
- mortality during the first 48 h after SE ([1]; test compound 30 mg/kg i.p. 1 h after SE onset): 20%
- mortality during the first 48 h after SE ([1]; test compound 60 mg/kg i.p. 1 h after SE onset): 4%
- damage, piriform cortex ventral layer II ([2]; 60 mg/kg): 56%
- cell loss, piriform cortex layer III ([2]; 120 mg/kg): 21%
- damage, piriform cortex ventral layer II ([2]; 120 mg/kg): 9%
- neuroprotection in CA3 pyramidal layer ([2]; 120 mg/kg, difference with DZP not significant): tendency to a slight neuroprotection
- neuroprotection in all layers of the dorsal entorhinal cortex ([2]; 30 and 60 mg/kg): did not afford any neuroprotection
- damage, piriform cortex dorsal layer II ([2]; 60-120 mg/kg): 4-21%
- cell loss, piriform cortex layer III ([2]; 60 and 90 mg/kg (two lower of the 60-120 mg/kg doses)): 53-64%
- cell losses, ventral entorhinal cortex layers III/IV ([2]; 90 and 120 mg/kg): 18-21%
- damage remaining, entorhinal cortex dorsal layers II and III/IV and ventral layer II ([2]; 90 and 120 mg/kg): 4-14%
- number of neuronal cell bodies, Dorsal entorhinal, layer II ([2]; RWJ30 = 30 mg/kg): 23.4 ± 0.8
- number of neuronal cell bodies, Dorsal entorhinal, layer III ([2]; RWJ30 = 30 mg/kg): 21.5 ± 1.3
- number of neuronal cell bodies, Piriform, layer II, dorsal ([2]; RWJ30 = 30 mg/kg): 15.7 ± 3.6
- number of neuronal cell bodies, Piriform, layer II, ventral ([2]; RWJ30 = 30 mg/kg): 7.2 ± 4.6
- number of neuronal cell bodies, Piriform, layer III ([2]; RWJ30 = 30 mg/kg): 1.8 ± 2.3
- number of neuronal cell bodies, Ventral entorhinal, layer II ([2]; RWJ30 = 30 mg/kg): 22.7 ± 1.2
- number of neuronal cell bodies, Ventral entorhinal, layers III-IV ([2]; RWJ30 = 30 mg/kg): 13.2 ± 2.5
- number of neuronal cell bodies, hippocampus CA1 area ([2]; RWJ30 = 30 mg/kg): 39.3 ± 5.0°°
- number of neuronal cell bodies, hippocampus CA3 area ([2]; RWJ30 = 30 mg/kg): 35.7 ± 1.4
- number of neuronal cell bodies, hippocampus Hilus ([2]; RWJ30 = 30 mg/kg): 33.0 ± 4.0
- number of neuronal cell bodies, Dorsal entorhinal, layer II ([2]; RWJ60 = 60 mg/kg): 24.1 ± 0.7
- number of neuronal cell bodies, Dorsal entorhinal, layer III ([2]; RWJ60 = 60 mg/kg): 24.0 ± 0.4
- number of neuronal cell bodies, Piriform, layer II, dorsal ([2]; RWJ60 = 60 mg/kg): 28.9 ± 2.7°°
- number of neuronal cell bodies, Piriform, layer II, ventral ([2]; RWJ60 = 60 mg/kg): 14.8 ± 5.9
- number of neuronal cell bodies, Piriform, layer III ([2]; RWJ60 = 60 mg/kg): 6.9 ± 2.9
- number of neuronal cell bodies, Ventral entorhinal, layer II ([2]; RWJ60 = 60 mg/kg): 23.1 ± 0.7
- number of neuronal cell bodies, Ventral entorhinal, layers III-IV ([2]; RWJ60 = 60 mg/kg): 17.8 ± 2.8
- number of neuronal cell bodies, hippocampus CA1 area ([2]; RWJ60 = 60 mg/kg): 31.9 ± 4.4
- number of neuronal cell bodies, hippocampus CA3 area ([2]; RWJ60 = 60 mg/kg): 31.6 ± 2.1
- number of neuronal cell bodies, hippocampus Hilus ([2]; RWJ60 = 60 mg/kg): 32.8 ± 5.4
- number of neuronal cell bodies, Dorsal entorhinal, layer II ([2]; RWJ90 = 90 mg/kg): 26.3 ± 0.9
- number of neuronal cell bodies, Dorsal entorhinal, layer III ([2]; RWJ90 = 90 mg/kg): 25.4 ± 1.3
- number of neuronal cell bodies, Piriform, layer II, dorsal ([2]; RWJ90 = 90 mg/kg): 32.4 ± 1.3°
- number of neuronal cell bodies, Piriform, layer II, ventral ([2]; RWJ90 = 90 mg/kg): 18.4 ± 5.1
- number of neuronal cell bodies, Piriform, layer III ([2]; RWJ90 = 90 mg/kg): 9.0 ± 4.1
- number of neuronal cell bodies, Ventral entorhinal, layer II ([2]; RWJ90 = 90 mg/kg): 26.7 ± 0.9°°
- number of neuronal cell bodies, Ventral entorhinal, layers III-IV ([2]; RWJ90 = 90 mg/kg): 23.7 ± 1.7°
- number of neuronal cell bodies, hippocampus CA1 area ([2]; RWJ90 = 90 mg/kg): 47.7 ± 5.4°
- number of neuronal cell bodies, hippocampus CA3 area ([2]; RWJ90 = 90 mg/kg): 35.1 ± 1.0
- number of neuronal cell bodies, hippocampus Hilus ([2]; RWJ90 = 90 mg/kg): 37.5 ± 5.2**°
- number of neuronal cell bodies, Dorsal entorhinal, layer II ([2]; RWJ120 = 120 mg/kg): 27.3 ± 0.5
- number of neuronal cell bodies, Dorsal entorhinal, layer III ([2]; RWJ120 = 120 mg/kg): 26.4 ± 0.9
- number of neuronal cell bodies, Piriform, layer II, dorsal ([2]; RWJ120 = 120 mg/kg): 35.2 ± 1.3°
- number of neuronal cell bodies, Piriform, layer II, ventral ([2]; RWJ120 = 120 mg/kg): 30.5 ± 1.5°
- number of neuronal cell bodies, Piriform, layer III ([2]; RWJ120 = 120 mg/kg): 15.0 ± 2.5°°
- number of neuronal cell bodies, Ventral entorhinal, layer II ([2]; RWJ120 = 120 mg/kg): 25.1 ± 0.7
- number of neuronal cell bodies, Ventral entorhinal, layers III-IV ([2]; RWJ120 = 120 mg/kg): 24.5 ± 1.6°
- number of neuronal cell bodies, hippocampus CA1 area ([2]; RWJ120 = 120 mg/kg): 65.5 ± 2.9°
- number of neuronal cell bodies, hippocampus CA3 area ([2]; RWJ120 = 120 mg/kg): 39.8 ± 1.5
- number of neuronal cell bodies, hippocampus Hilus ([2]; RWJ120 = 120 mg/kg): 44.8 ± 3.6
- damage, hilus of dentate gyrus ([2]; RWJ30, 60 and 90 groups): 62-66%
- cell loss, CA1 pyramidal layer ([2]; RWJ30, 60 or 90 rats): 36-57%
- neuroprotection in piriform cortex ([2]; RWJ30 dose): did not protect any layer
- cell loss, CA1 pyramidal layer ([2]; RWJ120): 13%
- damage, hilus of dentate gyrus ([2]; RWJ120): 54%
- damage, piriform cortex ventral layer II ([2]; second dose of 'the 60 and 120 mg/kg RWJ dose' as printed): 45%
